Measurements published in BindingDB's records for doi:10.1021/jm010853h (Sapienza University of Rome, 2001).
pIC50: −log10 of the molar value.

Molecular target: T1, Gag-Pol polyprotein [588-1027]/[588-1147] (Human immunodeficiency virus 1, UniProt P04585)
T1 construct: 588-1027; 588-1147
Assay: HIV-1 RT Assay
Settings: pH 7.8; 37 °C

Q: With `CCC(c1ccccc1)c1cc(=O)[nH]c(SC2CCCC2)n1` (stereo unspecified) [2-(cyclopentylsulfanyl)-6-(1-phenylpropyl)-3,4-dihydropyrimidin-4-one] as the molecule, how does the pIC50 read?
A: < 5.00
